According to patent US20050020672A1, “Methods of extending mammalian life span via iron chelating compounds that reduce free radical damage in mammals” (priority 1994, published 2005):

Key:
[1] = FDO stability under the diet making conditions; assay type: physicochemical; settings: mixed with ground Purina Mouse Chow, 70° C. for 3 hours under vacuum; ethanol extract, HPLC and UV absorption
Description: (§1) Three key parameters were measured prior to starting the study: (a) FDO stability under the diet making conditions (70° C. for 3 hours under vacuum), (b) FDO stability to stomach pH (approximately pH 1), and (c) FDO absorbed intact into the blood stream of the mouse. The following were the outcomes: • (a) The FDO was mixed with ground Purina Mouse Chow® and heated to 70° C. for 3 hours under vacuum; the FDO was then extracted from the chow with ethanol and assayed by HPLC and by UV absorption spectrum. […]

[2] = system: female albino Skh:HR-1 hairless mice; test: Effect of dietary FDO on mouse average life span (survival); assay type: in vivo; settings: for Mean survival: control 553 days
Description: Forty eight (48) female albino Skh:HR-1 hairless mice were obtained from Charles River Laboratories (Portage, Mich.). At the start of the study, the mice were approximately 20 weeks old. The mice were housed four to a standard plastic cage and given feed and water ad libitum. Sixteen (16) mice were placed on each of the three test diets described below.
The 2-Furildioxime (FDO) was obtained from Aldrich Chemical Co. (Milwaukee, Wis.).
(§2) The FDO-containing and control diets were prepared by Teklad (Madison, Wis.) by addition of FDO to standard Purina Mouse Chow®. Diets were stored at 4° C. in sealed containers until used. The levels of FDO in the diets were 0%, 0.01%, and 0.1%.
Throughout the study, mouse weights, food consumption, and date of death were recorded.

[3] = FDO stability to stomach pH; assay type: physicochemical; settings: 2:1:1 ethanol:propylene glycol:water at pH 1 (HCl); HPLC and UV absorption
Description: as §1

[4] = FDO content of FDO-containing diets during storage over the study; assay type: physicochemical; settings: diets stored at 4° C., sampled at 3 month intervals over approximately two years; UV absorption
Description: as §2
At 3 month intervals throughout the study, samples of the FDO-containing Purina Mouse Chow® were ground and extracted with ethanol; the ethanol was then analyzed for FDO content by UV absorption (obtaining the absorption spectrum versus the FDO standard and then determining level of FDO at the peak absorption).

[5] = FDO absorbed intact into the blood stream of the mouse; assay type: in vivo; settings: Skh mice fed chow containing 0.01% 14C-FDO for 14 days; blood analyzed by HPLC
Description: as §1

[6] = 0.01% and 0.1% FDO diets vs. 0% control diet

ON=C(C(=NO)c1ccco1)c1ccco1 [FDO, 2-furildioxime]
loss of FDO under diet making conditions [1]: no detectable loss | % Increase in Survival Time ([2]; 0.01% FDO diet vs. control diet, p = 0.05): 14% | Mean survival ([2]; 0.01% FDO diet, p = 0.05 vs. control): 632 days | mouse body weights [2, 6]: not different | mouse food consumption [2, 6]: not different | % Increase in Survival Time ([2]; 0.1% FDO diet vs. control diet, p = 0.02): 20% | Mean survival ([2]; 0.1% FDO diet, p = 0.02 vs. control): 664 days | death from all causes ([2]; FDO-fed mice): delayed to a later date | differences in the causes of death among the diet groups ([2]; autopsy, 0.01% and 0.1% FDO diets vs. control): not any differences | life span relative to the control diet ([2]; both FDO diets (0.01% and 0.1%), statistical analysis): significantly increased | appearance or behavioral differences ([2]; daily observation, 0.01% and 0.1% FDO diets vs. control): No differences | loss of FDO at stomach pH [3]: no detectable loss | loss of FDO from the diets [4]: no detectable loss | FDO in blood after dietary administration [5]: Intact FDO was detected
